# Results from ChEMBL document CHEMBL4732128, “Methylsulfanylpyridine based diheteroaryl isocombretastatin analogs as potent anti-proliferative agents” (Eur J Med Chem, 2021).
# pIC50: −log10 of the molar value. The source made the active and inactive calls. The calls are words filed in the database; no cut-off is given here.
# Key:
# [1] = Aqueous solubility of the compound in pH 7.0 phosphate buffer at 2 mg incubated for 72 hrs by shake flask method; assay type: physicochemical
# [2] = Inhibition of bovine brain tubulin polymerization incubated for 30 mins by turbidimetric assay; assay type: tissue-based, Bos taurus
# [3] = test system: HeLa; test: Antiproliferative activity against human HeLa cells assessed as inhibition of cell growth after 72 hrs by XTT assay; assay type: functional, cell-based
# [4] = test system: HL-60; test: Antiproliferative activity against human HL-60 cells assessed as inhibition of cell growth after 72 hrs by XTT assay; assay type: functional, cell-based; conditions: HL-60, 72 h
# [5] = test system: HT-29; test: Antiproliferative activity against human HT-29 cells assessed as inhibition of cell growth after 72 hrs by XTT assay; assay type: functional, cell-based; conditions: HT-29, 72 h
# [6] = target: Tubulin (Homo sapiens) (UniProt P68371+Q9H4B7+P0DPH7+P68366+Q13509+Q71U36+P04350+Q3ZCM7+P07437+P68363+Q9BQE3+Q6PEY2+Q13885+Q9BVA1+Q9BUF5); test: Induction of microtubule disruption in human HeLa cells at 1 uM measured after 24 hrs by immunofluorescence staining based confocal microscopic analysis; assay type: cell-based
# [7] = test system: HL-60; test: Induction of cell cycle arrest in human HL-60 cells assessed as accumulation of cells at Sub-G0/G1 phase at 1 nM after 24 to 72 hrs by propidium iodide staining-based flow cytometric analysis; assay type: functional; conditions: time 24-72 hrs
# [8] = test system: HL-60; test: Induction of cell cycle arrest in human HL-60 cells assessed as accumulation of cells at G0/G1 phase at 1 nM after 24 to 72 hrs by propidium iodide staining-based flow cytometric analysis; assay type: functional; conditions: time 24-72 hrs
# [9] = test system: HL-60; test: Induction of cell cycle arrest in human HL-60 cells assessed as accumulation of cells at S phase at 1 nM after 24 to 72 hrs by propidium iodide staining-based flow cytometric analysis; assay type: functional; conditions: time 24-72 hrs
# [10] = test system: HL-60; test: Induction of cell cycle arrest in human HL-60 cells assessed as accumulation of cells at G2/M phase at 1 nM after 24 to 72 hrs by propidium iodide staining-based flow cytometric analysis; assay type: functional; conditions: time 24-72 hrs
# [11] = test system: HeLa; test: Induction of cell cycle arrest in human HeLa cells assessed as accumulation of cells at Sub-G0/G1 phase at 1 nM after 24 to 72 hrs by propidium iodide staining-based flow cytometric analysis; assay type: functional; conditions: time 24-72 hrs
# [12] = test system: HeLa; test: Induction of cell cycle arrest in human HeLa cells assessed as accumulation of cells at G0/G1 phase at 1 nM after 24 to 72 hrs by propidium iodide staining-based flow cytometric analysis; assay type: functional; conditions: time 24-72 hrs
# [13] = test system: HeLa; test: Induction of cell cycle arrest in human HeLa cells assessed as accumulation of cells at S phase at 1 nM after 24 to 72 hrs by propidium iodide staining-based flow cytometric analysis; assay type: functional; conditions: time 24-72 hrs
# [14] = test system: HeLa; test: Induction of cell cycle arrest in human HeLa cells assessed as accumulation of cells at G2/M phase at 1 nM after 24 to 72 hrs by propidium iodide staining-based flow cytometric analysis; assay type: functional; conditions: time 24-72 hrs
# [15] = test system: HT-29; test: Induction of cell cycle arrest in human HT-29 cells assessed as accumulation of cells at Sub-G0/G1 phase at 1 nM after 24 to 72 hrs by propidium iodide staining-based flow cytometric analysis; assay type: functional; conditions: time 24-72 hrs
# [16] = test system: HT-29; test: Induction of cell cycle arrest in human HT-29 cells assessed as accumulation of cells at G0/G1 phase at 1 nM after 24 to 72 hrs by propidium iodide staining-based flow cytometric analysis; assay type: functional; conditions: time 24-72 hrs
# [17] = test system: HT-29; test: Induction of cell cycle arrest in human HT-29 cells assessed as accumulation of cells at S phase at 1 nM after 24 to 72 hrs by propidium iodide staining-based flow cytometric analysis; assay type: functional; conditions: time 24-72 hrs
# [18] = test system: HT-29; test: Induction of cell cycle arrest in human HT-29 cells assessed as accumulation of cells at G2/M phase at 1 nM after 24 to 72 hrs by propidium iodide staining-based flow cytometric analysis; assay type: functional; conditions: time 24-72 hrs
# [19] = test system: HL-60; test: Induction of cell cycle arrest in human HL-60 cells assessed as accumulation of cells at G2/M phase at 100 nM after 24 hrs by propidium iodide staining-based flow cytometric analysis; assay type: functional
# [20] = test system: HeLa; test: Induction of cell cycle arrest in human HeLa cells assessed as accumulation of cells at G2/M phase at 100 nM after 24 hrs by propidium iodide staining-based flow cytometric analysis; assay type: functional
# [21] = test system: HeLa; test: Induction of apoptosis in human HeLa cells assessed as increase in cell accumulation at sub-G0/G1 phase at 100 nM incubated for 24 hrs by propidium iodide staining based flow cytometry; assay type: functional
# [22] = test system: HL-60; test: Induction of apoptosis in human HL-60 cells assessed as increase in cell accumulation at sub-G0/G1 phase at 100 nM incubated for 48 hrs by propidium iodide staining based flow cytometry; assay type: functional
# [23] = test system: HL-60; test: Induction of apoptosis in human HL-60 cells assessed as increase in cell accumulation at sub-G0/G1 phase at 100 nM incubated for 72 hrs by propidium iodide staining based flow cytometry; assay type: functional
# [24] = test system: HeLa; test: Induction of apoptosis in human HeLa cells assessed as increase in cell accumulation at sub-G0/G1 phase at 100 nM incubated for 48 hrs by propidium iodide staining based flow cytometry; assay type: functional
# [25] = test system: HeLa; test: Induction of apoptosis in human HeLa cells assessed as increase in cell accumulation at sub-G0/G1 phase at 100 nM incubated for 72 hrs by propidium iodide staining based flow cytometry; assay type: functional
# [26] = test system: HL-60; test: Induction of cell cycle arrest in human HL-60 cells assessed as accumulation of cells at G2/M phase at 100 nM after 48 hrs by propidium iodide staining-based flow cytometric analysis; assay type: functional
# [27] = test system: HL-60; test: Induction of cell cycle arrest in human HL-60 cells assessed as accumulation of cells at G2/M phase at 100 nM after 72 hrs by propidium iodide staining-based flow cytometric analysis; assay type: functional
# [28] = test system: HeLa; test: Induction of cell cycle arrest in human HeLa cells assessed as accumulation of cells at G2/M phase at 100 nM after 48 hrs by propidium iodide staining-based flow cytometric analysis; assay type: functional
# [29] = test system: HeLa; test: Induction of cell cycle arrest in human HeLa cells assessed as accumulation of cells at G2/M phase at 100 nM after 72 hrs by propidium iodide staining-based flow cytometric analysis; assay type: functional
# [30] = test system: HT-29; test: Induction of cell cycle arrest in human HT-29 cells assessed as accumulation of cells at G2/M phase at 100 nM after 48 hrs by propidium iodide staining-based flow cytometric analysis; assay type: functional
# [31] = test system: HT-29; test: Induction of cell cycle arrest in human HT-29 cells assessed as accumulation of cells at G2/M phase at 100 nM after 72 hrs by propidium iodide staining-based flow cytometric analysis; assay type: functional
# [32] = test system: HEK293; test: Induction of mitotic arrest in human HEK293 cells; assay type: cell-based
# [33] = test system: HEK293; test: Induction of apoptosis in human HEK293 cells; assay type: cell-based
# [34] = test system: HeLa; test: Induction of mitotic arrest in human HeLa cells assessed as increase in MPM-2 expression at 1 uM incubated for 24 to 48 hrs by Western blot analysis; assay type: functional, cell-based; conditions: time 24-48 hrs
# [35] = test system: HeLa; test: Induction of apoptosis in human HeLa cells assessed as increase in cleaved PARP level at 1 uM after 24 to 48 hrs by Western blot analysis; assay type: functional, cell-based; conditions: time 24-48 hrs
# [36] = test system: HeLa; test: Induction of cell cycle arrest in human HeLa cells assessed as accumulation of cells at G2/M phase after 24 hrs by propidium iodide staining-based flow cytometric analysis; assay type: functional
# [37] = test system: HeLa; test: Induction of apoptosis in human HeLa cells assessed as accumulation of cells at sub-G0/G1 phase after 24 hrs by propidium iodide staining-based flow cytometric analysis; assay type: functional, cell-based
# [38] = test system: HT-29; test: Induction of cell cycle arrest in human HT-29 cells assessed as accumulation of cells at G2/M phase after 24 hrs by propidium iodide staining-based flow cytometric analysis; assay type: functional
# [39] = test system: HT-29; test: Induction of cell cycle arrest in human HT-29 cells assessed as accumulation of cells at G2/M phase at 100 nM after 24 hrs by propidium iodide staining-based flow cytometric analysis; assay type: functional
# [40] = test system: HT-29; test: Induction of apoptosis in human HT-29 cells assessed as increase in cell accumulation at sub-G0/G1 phase at 100 nM incubated for 48 hrs by propidium iodide staining based flow cytometry; assay type: functional
# [41] = test system: HT-29; test: Induction of apoptosis in human HT-29 cells assessed as increase in cell accumulation at sub-G0/G1 phase at 100 nM incubated for 72 hrs by propidium iodide staining based flow cytometry; assay type: functional
# [42] = test system: HT-29; test: Induction of cell cycle arrest in human HT-29 cells assessed as sum of Sub-G0/G1 and G2/M population at 1 uM after 48 hrs by propidium iodide staining based flow cytometry; assay type: functional
# [43] = test system: HT-29; test: Induction of cell cycle arrest in human HT-29 cells assessed as sum of Sub-G0/G1 and G2/M population at 10 uM after 48 hrs by propidium iodide staining based flow cytometry; assay type: functional
# [44] = test system: HT-29; test: Induction of cell cycle arrest in human HT-29 cells assessed as sum of Sub-G0/G1 and G2/M population at 1 uM after 72 hrs by propidium iodide staining based flow cytometry; assay type: functional
# [45] = test system: HT-29; test: Induction of cell cycle arrest in human HT-29 cells assessed as sum of Sub-G0/G1 and G2/M population at 10 uM after 72 hrs by propidium iodide staining based flow cytometry; assay type: functional
structure (smiles),measurement,setting,value
C=C(c1cc(Cl)nc(SC)c1)c1ccc2c(c1)c(C=O)cn2C,solubility thermodynamic at 72 h,[1],6.3 µg/mL
same,pIC50,[2],5.80
same,pIC50,[3],7.14
same,pIC50,[4],7.42
same,pIC50,[5],6.06
same,Activity,[6],Active
same,Activity,[7],inactive
same,Activity,[8],inactive
same,Activity,[9],inactive
same,Activity,[10],inactive
same,Activity,[11],inactive
same,Activity,[12],inactive
same,Activity,[13],inactive
same,Activity,[14],inactive
same,Activity,[15],inactive
same,Activity,[16],inactive
same,Activity,[17],inactive
same,Activity,[18],inactive
same,Activity,[19],80.1%
same,Activity,[20],56.9%
same,Activity,[21],25.2%
same,Activity,[22],20.9%
same,Activity,[23],32.6%
same,Activity,[24],47.6%
same,Activity,[25],59.1%
same,Activity,[26],40.5%
same,Activity,[27],22%
same,Activity,[28],30.4%
same,Activity,[29],7.9%
same,Activity,[30],11.8%
same,Activity,[31],15.1%
same,Activity,[32],Toxic
same,Activity,[33],Non-Toxic
same,Activity,[34],Active
same,Activity,[35],Active
same,Activity,[36],Active
same,Activity,[37],Active
same,Activity,[38],inactive
CSc1cc(C(=NO)c2ccc3c(c2)c(C#N)cn3C)cc(Cl)n1,solubility thermodynamic at 72 h,[1],5.1 µg/mL
same,pIC50,[2],6.70
same,pIC50,[3],7.24
same,pIC50,[4],7.03
same,pIC50,[5],6.71
same,Activity,[6],Active
same,Activity,[7],inactive
same,Activity,[8],inactive
same,Activity,[9],inactive
same,Activity,[10],inactive
same,Activity,[11],inactive
same,Activity,[12],inactive
same,Activity,[13],inactive
same,Activity,[14],inactive
same,Activity,[15],inactive
same,Activity,[16],inactive
same,Activity,[17],inactive
same,Activity,[18],inactive
same,Activity,[19],77.4%
same,Activity,[39],84.4%
same,Activity,[20],73.2%
same,Activity,[21],15.7%
same,Activity,[22],22.7%
same,Activity,[23],33.1%
same,Activity,[24],35.9%
same,Activity,[25],83.3%
same,Activity,[40],28.1%
same,Activity,[41],64.7%
same,Activity,[26],39.7%
same,Activity,[27],23.3%
same,Activity,[28],46.9%
same,Activity,[29],4.6%
same,Activity,[30],54.9%
same,Activity,[31],4.7%
same,Activity,[42],91.1%
same,Activity,[43],92.1%
same,Activity,[44],39.1%
same,Activity,[45],40.7%
same,Activity,[32],Toxic
same,Activity,[33],Non-Toxic
same,Activity,[34],Active
same,Activity,[35],Active
same,Activity,[36],Active
same,Activity,[37],Active
same,Activity,[38],Active
